Laboratory results: patent US12281225B2, “Process for preparing stable polymers containing vinylimidazole” (BASF SE, priority 2018, dated 2025)

Assays:
[1] = tested on: Bacteria: Escherichia coli, Staphylococcus aureus, Pseudomonas aeruginosa, Pseudomonas putida, Burkholderia cepacia, Alcaligenes faecalis; test: Preservation test with periodic inoculation, bacteria assessment; assay type: cell-based; conditions: sample stored 60 d at 40° C.
Method: (§1) Microbiological results at the start (freshly formulated, i.e. 4-week test series is started immediately) and after 60 days of storage at 40° C. (i.e. the 4-week microbial testing is started with the sample stored at 40° C. for 60 days)
(§2) The test described below is carried out in order to ascertain the preserving effect of chemical preservatives in aqueous products and systems, the principle of the described method reflecting the efficacy of chemical preservatives with respect to pot-maintenance of aqueous products/systems under conditions corresponding to the use of laundry products/consumer products by the consumer. For this purpose, the preservatives to be tested are added in those concentrations which correspond to from the literature or to the manufacturer data from the suppliers (e.g. Thor, Speyer). In said test, our orientation was toward the upper range, which, with the exception of VI-containing polymers, had always led to excellent results in the case of aqueous polymers for laundry.
(§3) A constant microorganism load is achieved by periodic inoculation of the test batches. Before the swabs of each batch made respectively immediately in parallel with the inoculation. The assessment is made on the basis of the microbial growth of the streaks.
(§4) When carrying out said tests, 25 g of the polymer to be tested are weighed in each case into a vessel with a screw cap. The preservatives to be tested are each added in separate batches according to the specified use concentrations. An unpreserved product sample was used in each case for the growth control. Two days after the addition of the preservative, the samples are infected with 0.5 ml of inoculum (2% w/w). The titer of this inoculant solution is 10^9 organisms per ml. The following microorganisms are the test organisms for the preservation test:
(§5) • Escherichia coli • Staphylococcus aureus • Pseudomonas aeruginosa • Pseudomonas putida • Burkholderia cepacia • Alcaligenes faecalis Yeast: • Candida albicans • Candida valida • Rhodotorula rura • Saccharomyces cerevisiae
(§6) The test batches are inoculated four times altogether and once a week and are streaked on an agar plate once a week; the first streaking is done immediately before the new inoculation. Microbial growth on the agar surface is assessed after a three-day incubation at 25° C. As a precaution, negative swabs are additionally observed for a further three days and reassessed. The preserving effect is effected in a semiquantitative method via the growth of the individual streaks in accordance with the assessment from − via + to +++. The preservative result is repeatedly demonstrably robust, i.e. +++− defines the microbial growth.
(§7) When assessing the results, it is assumed that a preservative can be regarded as good if there are batches under the above-described laboratory conditions for a period of four weeks without microbial invasion of the sample, and that, even after the fourth inoculation, no microbial attacks occur growth can be identified. • −−: no growth • −: slight growth, max. 100 colonies • 0: moderate growth, max. 400 colonies • +: uniform growth with individual colonies still easily identifiable • ++: strong growth; too many colonies to be counted, already some extensive growth

[2] = Physical stability; visual assessment (color, turbidity, phase separation); assay type: physicochemical; design: key: ++: no discernible change with respect to color, turbidity or phase separation; +: marginal change in color number, somewhat increased Tyndall effect but no turbidity; 0: easily discernible increase in color number and moderate turbidity−no phase separation; −: turbidity and change in color number readily discernible by visual assessment; −−: strong color change with strong turbidity and incipient phase separation
Source text: Physical stability; visual assessment according to:
++=no discernible change with respect to color, turbidity or phase separation; +=marginal change in color number, somewhat increased Tyndall effect but no turbidity; 0=easily discernible increase in color number and moderate turbidity−no phase separation; − turbidity and change in color number readily discernible by visual assessment; −− strong color change with strong turbidity and incipient phase separation.
Before storage, all batches could be rated ++ (no turbidity or phase separation; no influence of the biocide on the color number of the product).

[3] = tested on: Yeast: Candida albicans, Candida valida, Rhodotorula rura, Saccharomyces cerevisiae; test: Preservation test with periodic inoculation, yeast assessment; assay type: cell-based; conditions: for Start sample measurement, yeast assess., 4th inoculation: freshly formulated; for 60 d 40° C., yeast assess., 4th inoculation: sample stored 60 d at 40° C.
Method: as §1, §2, §3, §4, §5, §6, §7

## CCCCCCCCCCCCCCCC[n+]1ccccc1 [CPC, cetylpyridinium chloride]
[1]; Polymer P1
  60 d 40° C., bact. assess., 4th inoculation: − (slight growth, max. 100 colonies)
[1]; Polymer P2
  60 d 40° C., bact. assess., 4th inoculation: − (slight growth, max. 100 colonies)
[1]; Polymer P3
  60 d 40° C., bact. assess., 4th inoculation: − (slight growth, max. 100 colonies)
[1]; Polymer P4
  60 d 40° C., bact. assess., 4th inoculation: 0 (moderate growth, max. 400 colonies)
[1]; Polymer P5 (HP56)
  60 d 40° C., bact. assess., 4th inoculation: − (slight growth, max. 100 colonies)
[1]; Polymer P6
  60 d 40° C., bact. assess., 4th inoculation: − (slight growth, max. 100 colonies)
[1]; Polymer P7
  60 d 40° C., bact. assess., 4th inoculation: − (slight growth, max. 100 colonies)
[2]; Polymer P1 with stabilizer
  Physical stability, 60 d 40° C.*: +
[2]; Polymer P2 with stabilizer
  Physical stability, 60 d 40° C.*: +
[2]; Polymer P3 with stabilizer
  Physical stability, 60 d 40° C.*: +
[2]; Polymer P4 with stabilizer
  Physical stability, 60 d 40° C.*: +
[2]; Polymer P5 (HP56) with stabilizer
  Physical stability, 60 d 40° C.*: +
[2]; Polymer P6 with stabilizer
  Physical stability, 60 d 40° C.*: +
[2]; Polymer P7 with stabilizer
  Physical stability, 60 d 40° C.*: +
[2]; Polymer P8 with stabilizer
  Physical stability, 60 d 40° C.*: +
[2]; Polymer P9 with stabilizer
  Physical stability, 60 d 40° C.*: +
[3]; Polymer P1
  Start sample measurement, yeast assess., 4th inoculation: − (slight growth, max. 100 colonies)
  60 d 40° C., yeast assess., 4th inoculation: − (slight growth, max. 100 colonies)
[3]; Polymer P2
  Start sample measurement, yeast assess., 4th inoculation: − (slight growth, max. 100 colonies)
  60 d 40° C., yeast assess., 4th inoculation: − (slight growth, max. 100 colonies)
[3]; Polymer P3
  Start sample measurement, yeast assess., 4th inoculation: − (slight growth, max. 100 colonies)
  60 d 40° C., yeast assess., 4th inoculation: 0 (moderate growth, max. 400 colonies)
[3]; Polymer P4
  Start sample measurement, yeast assess., 4th inoculation: − (slight growth, max. 100 colonies)
  60 d 40° C., yeast assess., 4th inoculation: 0 (moderate growth, max. 400 colonies)
[3]; Polymer P5 (HP56)
  Start sample measurement, yeast assess., 4th inoculation: − (slight growth, max. 100 colonies)
  60 d 40° C., yeast assess., 4th inoculation: 0 (moderate growth, max. 400 colonies)
[3]; Polymer P6
  Start sample measurement, yeast assess., 4th inoculation: − (slight growth, max. 100 colonies)
  60 d 40° C., yeast assess., 4th inoculation: 0 (moderate growth, max. 400 colonies)
[3]; Polymer P7
  Start sample measurement, yeast assess., 4th inoculation: − (slight growth, max. 100 colonies)
  60 d 40° C., yeast assess., 4th inoculation: 0 (moderate growth, max. 400 colonies)
[3]; Polymer P8
  Start sample measurement, yeast assess., 4th inoculation: − (slight growth, max. 100 colonies)
  60 d 40° C., yeast assess., 4th inoculation: 0 (moderate growth, max. 400 colonies)
[3]; Polymer P9
  Start sample measurement, yeast assess., 4th inoculation: − (slight growth, max. 100 colonies)
  60 d 40° C., yeast assess., 4th inoculation: − (slight growth, max. 100 colonies)
